According to US20260053811A1, “METHODS OF TREATING HYPERTENSION IN OBESE SUBJECTS” (Mineralys Therapeutics, Inc., priority 2022, published 2026):

Tested on: hypertensive subjects
Experiment: Estimated glomerular filtration rate (eGFR, CKD-EPI equation)
Assay type: in vivo, human
Settings: Part 1
Protocol: In contrast, mean eGFR for the Placebo group was relatively stable throughout treatment, reaching a mean maximal reduction of −2.80 mL/min/1.73 m^2 at Week 2 (range: −0.83 mL/min/1.73 m^2 to −2.80 mL/min/1.73 m^2). Estimated glomerular filtration rate was estimated using the CKD-EPI equation.

Which results are given for `CC(=O)N[C@H]1CC[C@H](NC(=O)CN2CCN(c3nncc(-c4ccc(C)cc4)n3)CC2)CC1` [Compound A HBr]?
eGFR mean maximum decline relative to baseline (100 mg QD, Week 2): 10.91 mL/min/1.73 m^2; Estimated Glomerular Filtration Rate, Mean (SD) Change from Baseline (Week 1, 12.5 mg BID): −2.25 (8.42) mL/min/1.73 m^2; Estimated Glomerular Filtration Rate, Mean (SD) Observed (Week 1, 12.5 mg BID): 79.45 (15.19) mL/min/1.73 m^2; Estimated Glomerular Filtration Rate, Mean (SD) Change from Baseline (Week 1, 12.5 mg QD): −4.30 (7.14) mL/min/1.73 m^2; Estimated Glomerular Filtration Rate, Mean (SD) Observed (Week 1, 12.5 mg QD): 73.57 (20.33) mL/min/1.73 m^2; Estimated Glomerular Filtration Rate, Mean (SD) Change from Baseline (Week 1, 25 mg BID): −6.85 (8.88) mL/min/1.73 m^2; Estimated Glomerular Filtration Rate, Mean (SD) Observed (Week 1, 25 mg BID): 74.00 (13.13) mL/min/1.73 m^2; Estimated Glomerular Filtration Rate, Mean (SD) Change from Baseline (Week 1, 50 mg QD): −2.96 (8.52) mL/min/1.73 m^2; Estimated Glomerular Filtration Rate, Mean (SD) Observed (Week 1, 50 mg QD): 74.21 (16.88) mL/min/1.73 m^2; Estimated Glomerular Filtration Rate, Mean (SD) Change from Baseline (Week 1, 100 mg QD): −6.80 (10.03) mL/min/1.73 m^2; Estimated Glomerular Filtration Rate, Mean (SD) Observed (Week 1, 100 mg QD): 70.81 (17.66) mL/min/1.73 m^2; Estimated Glomerular Filtration Rate, Mean (SD) Change from Baseline (Week 2, 12.5 mg BID): −3.69 (6.46) mL/min/1.73 m^2; Estimated Glomerular Filtration Rate, Mean (SD) Observed (Week 2, 12.5 mg BID): 78.86 (18.56) mL/min/1.73 m^2; Estimated Glomerular Filtration Rate, Mean (SD) Change from Baseline (Week 2, 12.5 mg QD): −4.87 (5.03) mL/min/1.73 m^2; Estimated Glomerular Filtration Rate, Mean (SD) Observed (Week 2, 12.5 mg QD): 73.00 (20.81) mL/min/1.73 m^2; Estimated Glomerular Filtration Rate, Mean (SD) Change from Baseline (Week 2, 25 mg BID): −5.42 (10.01) mL/min/1.73 m^2; Estimated Glomerular Filtration Rate, Mean (SD) Observed (Week 2, 25 mg BID): 75.43 (15.32) mL/min/1.73 m^2; Estimated Glomerular Filtration Rate, Mean (SD) Change from Baseline (Week 2, 50 mg QD): −4.32 (9.06) mL/min/1.73 m^2; Estimated Glomerular Filtration Rate, Mean (SD) Observed (Week 2, 50 mg QD): 72.86 (16.55) mL/min/1.73 m^2; Estimated Glomerular Filtration Rate, Mean (SD) Change from Baseline (Week 2, 100 mg QD): −10.91 (8.57) mL/min/1.73 m^2; Estimated Glomerular Filtration Rate, Mean (SD) Observed (Week 2, 100 mg QD): 65.56 (17.66) mL/min/1.73 m^2; Estimated Glomerular Filtration Rate, Mean (SD) Change from Baseline (Week 3, 12.5 mg BID): −5.17 (8.54) mL/min/1.73 m^2; Estimated Glomerular Filtration Rate, Mean (SD) Observed (Week 3, 12.5 mg BID): 77.38 (16.68) mL/min/1.73 m^2; Estimated Glomerular Filtration Rate, Mean (SD) Change from Baseline (Week 3, 12.5 mg QD): −2.05 (6.43) mL/min/1.73 m^2; Estimated Glomerular Filtration Rate, Mean (SD) Observed (Week 3, 12.5 mg QD): 77.21 (20.38) mL/min/1.73 m^2; Estimated Glomerular Filtration Rate, Mean (SD) Change from Baseline (Week 3, 25 mg BID): −5.90 (8.63) mL/min/1.73 m^2; Estimated Glomerular Filtration Rate, Mean (SD) Observed (Week 3, 25 mg BID): 75.07 (11.95) mL/min/1.73 m^2; Estimated Glomerular Filtration Rate, Mean (SD) Change from Baseline (Week 3, 50 mg QD): −2.35 (8.51) mL/min/1.73 m^2; Estimated Glomerular Filtration Rate, Mean (SD) Observed (Week 3, 50 mg QD): 74.81 (15.62) mL/min/1.73 m^2; Estimated Glomerular Filtration Rate, Mean (SD) Change from Baseline (Week 3, 100 mg QD): −9.24 (10.99) mL/min/1.73 m^2; Estimated Glomerular Filtration Rate, Mean (SD) Observed (Week 3, 100 mg QD): 67.22 (19.24) mL/min/1.73 m^2; Estimated Glomerular Filtration Rate, Mean (SD) Change from Baseline (Week 4, 12.5 mg BID): −6.58 (9.17) mL/min/1.73 m^2; Estimated Glomerular Filtration Rate, Mean (SD) Observed (Week 4, 12.5 mg BID): 76.30 (18.28) mL/min/1.73 m^2; Estimated Glomerular Filtration Rate, Mean (SD) Change from Baseline (Week 4, 12.5 mg QD): −5.45 (6.37) mL/min/1.73 m^2; Estimated Glomerular Filtration Rate, Mean (SD) Observed (Week 4, 12.5 mg QD): 73.40 (19.29) mL/min/1.73 m^2; Estimated Glomerular Filtration Rate, Mean (SD) Change from Baseline (Week 4, 25 mg BID): −6.69 (8.97) mL/min/1.73 m^2; Estimated Glomerular Filtration Rate, Mean (SD) Observed (Week 4, 25 mg BID): 73.48 (15.26) mL/min/1.73 m^2; Estimated Glomerular Filtration Rate, Mean (SD) Change from Baseline (Week 4, 50 mg QD): −3.61 (9.24) mL/min/1.73 m^2; Estimated Glomerular Filtration Rate, Mean (SD) Observed (Week 4, 50 mg QD): 73.63 (16.75) mL/min/1.73 m^2; Estimated Glomerular Filtration Rate, Mean (SD) Change from Baseline (Week 4, 100 mg QD): −9.46 (12.53) mL/min/1.73 m^2; Estimated Glomerular Filtration Rate, Mean (SD) Observed (Week 4, 100 mg QD): 67.23 (19.70) mL/min/1.73 m^2; Estimated Glomerular Filtration Rate, Mean (SD) Change from Baseline (Week 5, 12.5 mg BID): −7.58 (8.00) mL/min/1.73 m^2; Estimated Glomerular Filtration Rate, Mean (SD) Observed (Week 5, 12.5 mg BID): 73.84 (20.78) mL/min/1.73 m^2; Estimated Glomerular Filtration Rate, Mean (SD) Change from Baseline (Week 5, 12.5 mg QD): −3.60 (5.70) mL/min/1.73 m^2; Estimated Glomerular Filtration Rate, Mean (SD) Observed (Week 5, 12.5 mg QD): 75.25 (19.58) mL/min/1.73 m^2; Estimated Glomerular Filtration Rate, Mean (SD) Change from Baseline (Week 5, 25 mg BID): −7.41 (9.65) mL/min/1.73 m^2; Estimated Glomerular Filtration Rate, Mean (SD) Observed (Week 5, 25 mg BID): 73.25 (14.75) mL/min/1.73 m^2; Estimated Glomerular Filtration Rate, Mean (SD) Change from Baseline (Week 5, 50 mg QD): −4.10 (9.61) mL/min/1.73 m^2; Estimated Glomerular Filtration Rate, Mean (SD) Observed (Week 5, 50 mg QD): 70.58 (13.23) mL/min/1.73 m^2
